Experiment [1] addresses Poly [ADP-ribose] polymerase 1 (Homo sapiens, UniProt P09874). Kind of experiment: Selectivity interaction (Enzymatic assay (Reaction Biology)) EUB0001632a PARP1.
Experiment [2] has as its target T1, cAMP-dependent protein kinase catalytic subunit PRKX (Homo sapiens) (UniProt P51817).
T1 sequence (whole entry): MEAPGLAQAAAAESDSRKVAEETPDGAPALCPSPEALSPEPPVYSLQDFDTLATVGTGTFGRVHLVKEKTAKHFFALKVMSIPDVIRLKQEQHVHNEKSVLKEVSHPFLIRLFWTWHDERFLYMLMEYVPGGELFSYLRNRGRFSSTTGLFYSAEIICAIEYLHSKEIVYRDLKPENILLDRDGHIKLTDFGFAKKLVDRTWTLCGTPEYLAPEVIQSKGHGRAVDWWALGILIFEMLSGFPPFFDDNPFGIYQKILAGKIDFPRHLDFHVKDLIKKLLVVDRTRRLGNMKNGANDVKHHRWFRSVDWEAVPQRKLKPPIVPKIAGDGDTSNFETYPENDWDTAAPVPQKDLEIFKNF
Kind of experiment: Selectivity interaction (Kinase panel (Z-LYTE Assay)) EUB0001632a PRKX. As to conditions: at 10 µM.

Experiment [3] concerns the target Histone-lysine N-methyltransferase ASH1L (Homo sapiens) (UniProt Q9NR48). In words: Selectivity interaction (Methyltransferase screen (radiometric assays, panel of 8 PRMTs, 21 protein lysine methyltransferases, 3 DNA methyltransferases, and one RNA methyltransferase)) EUB0000271b ASH1L.
Experiment [4] deals with Serine/threonine-protein kinase 16 (Homo sapiens, UniProt O75716). The note with it: at 10 µM.
The target of experiment [5] is T2, Ephrin type-A receptor 8 (Homo sapiens) (UniProt P29322).
T2 sequence (whole entry): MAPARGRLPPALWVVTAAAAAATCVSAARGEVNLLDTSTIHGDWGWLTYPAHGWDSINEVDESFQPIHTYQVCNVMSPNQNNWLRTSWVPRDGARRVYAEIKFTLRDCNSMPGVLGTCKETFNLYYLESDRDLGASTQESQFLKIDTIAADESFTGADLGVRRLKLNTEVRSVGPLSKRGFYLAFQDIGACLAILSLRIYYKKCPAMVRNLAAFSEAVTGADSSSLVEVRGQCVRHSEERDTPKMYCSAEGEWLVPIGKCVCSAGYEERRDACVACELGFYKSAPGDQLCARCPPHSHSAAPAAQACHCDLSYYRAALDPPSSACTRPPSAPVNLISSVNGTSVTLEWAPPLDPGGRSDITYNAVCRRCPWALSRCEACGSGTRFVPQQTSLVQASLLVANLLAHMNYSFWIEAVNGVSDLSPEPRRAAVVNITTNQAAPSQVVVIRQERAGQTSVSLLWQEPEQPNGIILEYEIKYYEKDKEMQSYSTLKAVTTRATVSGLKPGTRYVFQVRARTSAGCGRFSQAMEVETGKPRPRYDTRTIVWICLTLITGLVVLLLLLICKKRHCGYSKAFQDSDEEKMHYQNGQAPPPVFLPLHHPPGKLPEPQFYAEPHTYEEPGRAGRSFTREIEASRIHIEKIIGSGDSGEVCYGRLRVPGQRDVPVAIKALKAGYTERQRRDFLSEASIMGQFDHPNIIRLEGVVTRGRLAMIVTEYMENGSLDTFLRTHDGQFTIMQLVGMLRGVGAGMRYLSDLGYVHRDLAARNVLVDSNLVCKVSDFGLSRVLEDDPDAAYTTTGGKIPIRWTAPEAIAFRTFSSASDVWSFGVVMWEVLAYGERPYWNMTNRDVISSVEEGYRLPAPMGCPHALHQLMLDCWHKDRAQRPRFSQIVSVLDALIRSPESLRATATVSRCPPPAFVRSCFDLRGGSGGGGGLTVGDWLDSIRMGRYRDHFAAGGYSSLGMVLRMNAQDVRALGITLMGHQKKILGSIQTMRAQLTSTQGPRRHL
As to conditions: at 10 µM.

Experiment [6] addresses cAMP-dependent protein kinase catalytic subunit beta (Homo sapiens) (UniProt P22694). In words: Selectivity interaction (KinomeScan (DiscoverX)) EUB0000666a PRKACB. The note with it: at 10 µM.
For experiment [7], the target named is Serine/threonine-protein kinase B-raf (Homo sapiens) (UniProt P15056). In words: (§1) Selectivity interaction (KinomeScan (DiscoverX)) EUB0001079a BRAF. The note with it: at 1 µM.
The test system of experiment [8] is Serine/threonine-protein kinase B-raf (Homo sapiens), P15056 [V600E]. Described as §1. The note with it: at 1 µM.
The target in experiment [9] is Protein-tyrosine kinase 6 (Homo sapiens, UniProt Q13882). In words: Selectivity interaction (KinaseProfiler screening (Millipore, enzymatic assay)) EUB0000601a PTK6.
The target in experiment [10] is Serine/threonine-protein kinase 38-like (Homo sapiens) (UniProt Q9Y2H1). In words: Selectivity interaction (ActivX KiNativ screen (ex vivo kinase selectivity in human PBMCs)) EUB0001619a STK38L. It counts as cell-based. The note with it: PBMC, at 1 µM.
Experiment [11] concerns the target cAMP-dependent protein kinase catalytic subunit beta (Homo sapiens) (UniProt P22694). Kind of experiment: Selectivity interaction (KinomeScan (DiscoverX)) EUB0000045b PRKACB.

Chain of Serine/threonine-protein kinase B-raf (Homo sapiens) (P15056 whole entry): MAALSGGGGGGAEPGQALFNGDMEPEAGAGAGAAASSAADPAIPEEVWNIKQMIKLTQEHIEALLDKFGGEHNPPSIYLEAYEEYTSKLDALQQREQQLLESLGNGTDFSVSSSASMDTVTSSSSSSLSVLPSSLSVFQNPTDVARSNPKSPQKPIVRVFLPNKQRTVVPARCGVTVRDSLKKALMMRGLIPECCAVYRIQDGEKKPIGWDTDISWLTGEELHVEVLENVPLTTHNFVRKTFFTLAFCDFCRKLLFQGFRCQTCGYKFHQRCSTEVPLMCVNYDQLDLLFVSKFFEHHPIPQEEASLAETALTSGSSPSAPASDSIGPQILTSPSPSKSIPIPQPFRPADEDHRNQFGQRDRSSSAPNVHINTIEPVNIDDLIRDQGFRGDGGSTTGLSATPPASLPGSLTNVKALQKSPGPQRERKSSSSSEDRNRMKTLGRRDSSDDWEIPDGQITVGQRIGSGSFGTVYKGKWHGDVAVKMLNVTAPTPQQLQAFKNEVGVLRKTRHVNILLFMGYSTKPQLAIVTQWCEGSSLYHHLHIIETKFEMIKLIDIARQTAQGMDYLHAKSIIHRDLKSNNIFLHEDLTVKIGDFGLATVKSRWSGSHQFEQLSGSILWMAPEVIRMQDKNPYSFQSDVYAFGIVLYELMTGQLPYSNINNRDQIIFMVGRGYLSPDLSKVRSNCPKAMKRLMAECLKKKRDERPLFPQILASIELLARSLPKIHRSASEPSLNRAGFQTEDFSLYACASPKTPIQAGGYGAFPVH
Chain of Serine/threonine-protein kinase 16 (O75716 whole entry): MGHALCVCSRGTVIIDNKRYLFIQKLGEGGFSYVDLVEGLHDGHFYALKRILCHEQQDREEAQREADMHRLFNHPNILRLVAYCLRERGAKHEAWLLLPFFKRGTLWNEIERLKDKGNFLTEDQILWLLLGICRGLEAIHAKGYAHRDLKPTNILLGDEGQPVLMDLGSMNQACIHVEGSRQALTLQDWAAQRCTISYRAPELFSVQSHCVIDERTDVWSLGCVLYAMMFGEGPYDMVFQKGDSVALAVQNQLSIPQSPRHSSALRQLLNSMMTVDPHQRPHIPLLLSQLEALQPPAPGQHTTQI
Chain of Poly [ADP-ribose] polymerase 1 (P09874 whole entry): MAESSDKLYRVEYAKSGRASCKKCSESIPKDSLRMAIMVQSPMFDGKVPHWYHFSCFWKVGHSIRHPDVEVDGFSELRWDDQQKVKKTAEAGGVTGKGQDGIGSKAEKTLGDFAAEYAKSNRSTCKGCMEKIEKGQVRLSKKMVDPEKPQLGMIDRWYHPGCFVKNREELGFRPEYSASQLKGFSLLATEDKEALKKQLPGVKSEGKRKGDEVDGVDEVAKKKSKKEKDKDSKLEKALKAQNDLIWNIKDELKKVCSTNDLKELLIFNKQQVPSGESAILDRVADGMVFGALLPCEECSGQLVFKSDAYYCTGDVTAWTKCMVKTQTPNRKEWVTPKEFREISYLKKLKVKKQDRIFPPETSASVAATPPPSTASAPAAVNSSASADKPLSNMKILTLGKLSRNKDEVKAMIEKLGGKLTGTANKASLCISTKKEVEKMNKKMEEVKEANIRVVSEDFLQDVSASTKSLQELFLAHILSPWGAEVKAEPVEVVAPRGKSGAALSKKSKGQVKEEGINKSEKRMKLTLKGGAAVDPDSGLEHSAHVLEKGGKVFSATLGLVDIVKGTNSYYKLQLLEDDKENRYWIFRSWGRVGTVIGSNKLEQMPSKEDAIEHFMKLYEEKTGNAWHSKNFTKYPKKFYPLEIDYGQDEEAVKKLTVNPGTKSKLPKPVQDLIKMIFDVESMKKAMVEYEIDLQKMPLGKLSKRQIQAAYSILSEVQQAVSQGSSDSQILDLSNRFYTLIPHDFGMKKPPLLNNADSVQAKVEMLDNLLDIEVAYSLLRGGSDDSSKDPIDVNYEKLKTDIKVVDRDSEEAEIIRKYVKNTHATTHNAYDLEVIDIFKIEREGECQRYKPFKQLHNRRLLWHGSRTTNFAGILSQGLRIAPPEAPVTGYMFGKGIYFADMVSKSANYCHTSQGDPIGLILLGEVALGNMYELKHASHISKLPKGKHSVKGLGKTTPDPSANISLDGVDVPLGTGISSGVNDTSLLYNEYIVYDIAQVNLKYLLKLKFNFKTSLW
Chain of Protein-tyrosine kinase 6 (Q13882 whole entry): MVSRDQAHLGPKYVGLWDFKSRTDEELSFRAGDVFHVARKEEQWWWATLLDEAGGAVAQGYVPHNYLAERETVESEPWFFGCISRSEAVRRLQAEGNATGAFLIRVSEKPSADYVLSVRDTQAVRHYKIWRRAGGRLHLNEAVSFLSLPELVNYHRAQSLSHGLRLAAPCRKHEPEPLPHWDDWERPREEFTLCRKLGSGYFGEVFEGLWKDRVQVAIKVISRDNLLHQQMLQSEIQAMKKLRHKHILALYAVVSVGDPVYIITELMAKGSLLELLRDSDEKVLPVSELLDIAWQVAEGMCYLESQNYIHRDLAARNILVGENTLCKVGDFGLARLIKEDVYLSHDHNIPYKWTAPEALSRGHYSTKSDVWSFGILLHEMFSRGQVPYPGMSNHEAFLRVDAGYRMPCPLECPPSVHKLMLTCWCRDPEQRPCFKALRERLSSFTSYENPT
Chain of Serine/threonine-protein kinase 38-like (Homo sapiens) (Q9Y2H1 2-464 limits assumed): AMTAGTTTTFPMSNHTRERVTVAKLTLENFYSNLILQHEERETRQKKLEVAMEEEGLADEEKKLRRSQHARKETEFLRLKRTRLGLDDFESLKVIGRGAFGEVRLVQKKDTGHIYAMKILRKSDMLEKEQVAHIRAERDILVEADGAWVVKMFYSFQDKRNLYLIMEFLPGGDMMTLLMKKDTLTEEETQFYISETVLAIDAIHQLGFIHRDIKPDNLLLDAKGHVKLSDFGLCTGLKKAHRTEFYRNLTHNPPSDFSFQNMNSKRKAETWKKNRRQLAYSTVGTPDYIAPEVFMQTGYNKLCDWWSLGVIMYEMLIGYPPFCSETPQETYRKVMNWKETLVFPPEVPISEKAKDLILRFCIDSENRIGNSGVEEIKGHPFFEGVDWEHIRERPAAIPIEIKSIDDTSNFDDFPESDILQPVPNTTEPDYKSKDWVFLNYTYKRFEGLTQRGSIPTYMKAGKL
Chain of Serine/threonine-protein kinase B-raf (Homo sapiens), P15056 [V600E] (P15056 whole entry V600E): as the sequence (P15056 whole entry) above, with V600E counted along it

The IC50 is the concentration that gives 50% inhibition. Read a low IC50 as greater potency. Consider `Cn1cc(-n2cnc3c(NCc4nc5cc(Cl)c(Cl)cc5[nH]4)nc(N4CCOCC4)nc32)cn1`, for which, in [1], the IC50 is greater than 10000 nM. Besides, in experiment [2], the % of control turned out to be 2.85%.
With `Cc1cc(C)cc([C@@H]2c3cc(C)ccc3NC(=O)CN2C(=O)c2ccc(Br)s2)c1`, the % of activity was determined as 97.3% in experiment [3] (at 1 µM) and 105% in experiment [3] (at 10 µM).
As to `Cc1cc([C@@H](C)Nc2ccccc2C(=O)O)c2nc(N3CCOCC3)cc(=O)n2c1` [AZD-6482], the % of control was found to be 77% in experiment [4] and 96% in [5].
In turn, `O=C(NOC[C@H](O)CO)c1ccc(F)c(F)c1Nc1ccc(I)cc1F` displayed a % of control in [6] of 98%.
For `Nc1cnc(N2CCc3cc(S(=O)(=O)Nc4c(F)cc(Cl)cc4F)cc(N4CCCC4=O)c32)nc1` [TP-020n], the % of control came out at 98% in [7] and 100% in experiment [8].
For `CCc1cc(Nc2nccc(-c3c(-c4ccc(OC)c(C(=O)Nc5c(F)cccc5F)c4)nc4ccccn34)n2)c(OC)cc1N1CCC(N2CCN(S(C)(=O)=O)CC2)CC1`, the IC50 in experiment [9] is 357 nM.
The molecule `N#Cc1cccc(-c2c[nH]c3ncnc(N4CCOCC4)c23)c1` showed a % of inhibition in experiment [10] of 20%.
As for `C=CC(=O)Nc1cc(-n2c(=O)ccc3cnc4ccc(-c5ccc(NS(C)(=O)=O)cc5)cc4c32)ccc1C`, the % of control in experiment [11] (at 1 µM) came out at 79%; in experiment [11] (at 10 µM) it was 100%.

Source of the values: ChEMBL document CHEMBL5465560, “Selectivity Literature for EUbOPEN Chemogenomic Library” (2024).
